{"source": "patent US6656921B1", "about": "“Use of zinc hyaluronate against peptic ulcer” (Richter Gedeon Vegyeszeti Gyar RT., priority 1997, dated 2003)", "key": {"[1]": {"test_system": "indomethacin induced gastric lesion", "test": "Inhibition of indomethacin induced gastric lesion", "type": "in vivo, rat", "conditions": "for Inhibition: 30 min before indomethacin; for Lesion number/stomach ± S.E.M.: 30 min before indomethacin 40 mg/kg s.c.", "method": "2. Inhibition of Indomethacin Induced Gastric Lesion Female RG Wistar rats weighing between 120-150 g were used. Before the experiments animals were fasted for 24 hours but received water ad libitum. Test compounds were given orally, 30 minutes later the animals were treated subcutaneously with indomethacin at a dose of 40 mg/kg. Four hours after the irritating indomethacin administration the animals were killed by cervical dislocation. The stomachs were removed, opened along the greater curvature and the hemorrhagic lesions were counted on the glandular stomach.\nED50 value represents the dose which protects the stomach by 50 % from the damaging effect of indomethacin."}, "[2]": {"test_system": "gastrointestinal motility", "test": "Gastrointestinal motility in the charcoal propulsion test", "type": "in vivo, rat", "conditions": "100 mg/kg p.o.", "method": "Experiments were performed on female, RG-Wistar rats weighing 120-140 g, which were fasted for 24 hours but received water ad libitum.\nThe experimental procedure was carried out according to the technique similar to that described of P. A. Janssen and A. J. Jageneau [J. Pharm. Pharmacel. 9, 381 (1957)].\nTest compounds were given orally at a dose of 100 mg/kg. Control animals received physiological saline solution instead of test compounds. 30 minutes later, the 5% (w/v) charcoal suspension was administered orally at a volume of 0.5 ml/animal. 60 minutes after the charcoal treatment the animals were sacrificed by cervical dislocation. The intestine from pylorus to cecum was removed, its lengths measured along with the distance traversed by the charcoal meal.\nMotility was expressed as the ratio of length of charcoal suspension to the length of the whole intestine."}}, "data": [{"substance": "zinc hyaluronate [Zinc hyaluronate (M)]", "values": [{"measurement": "Inhibition", "setting": "[1]; 1.0 mg/kg p.o.", "result": 15.7, "unit": "%"}, {"measurement": "Lesion number/stomach ± S.E.M.", "setting": "[1]; 1.0 mg/kg p.o.", "result": "15.6 ± 6.2"}, {"measurement": "Inhibition", "setting": "[1]; 10.0 mg/kg p.o.", "result": 68.1, "unit": "%"}, {"measurement": "Lesion number/stomach ± S.E.M.", "setting": "[1]; 10.0 mg/kg p.o.", "result": "5.9 ± 1.9"}, {"measurement": "Inhibition", "setting": "[1]; 100 mg/kg p.o.", "result": 89.2, "unit": "%"}, {"measurement": "Lesion number/stomach ± S.E.M.", "setting": "[1]; 100 mg/kg p.o.", "result": "2.0 ± 0.9"}, {"measurement": "ED50 (dose protecting the stomach by 50% from indomethacin)", "setting": "[1]; p.o.", "result": 6.2, "unit": "mg/kg"}, {"measurement": "Effect on the intestinal motility (in words)", "setting": "[2]", "result": "absence of change in activity"}, {"measurement": "Ratio of charcoal suspension to the whole intestinal part", "setting": "[2]", "result": "0.83 ± 0.03"}, {"measurement": "Propulsion of charcoal suspension mm ± S.E.M.", "setting": "[2]; 30 min before charcoal, 60 min after charcoal", "result": "655 ± 3.9", "unit": "mm"}]}]}
